The text below walks through data of patent publication US20250041306A1, “TARGETED PROTEASE DEGRADATION (TED) PLATFORM” (EUBULUS BIOTHERAPEUTICS INC., priority 2021, published 2025).

Read-outs that look alike come from different tables or passages of the source.

What all share (type): cell-based
Assay [1] concerns human gastric carcinoma cells N87. Kind of assay: Cell proliferation experiment (Alarm blue), N87. The method, then:
(§1) The cells were cultured in conventional ways, and the cells should be passed for at least 2 generations before plating. Cells at the logarithmic growth phase were collected, prepared into single cell suspensions and counted. The concentration of cells was adjusted to desired concentration, and cells were inoculated into a 96-well cell culture plate at 100 μl per well. 100 μL of complete medium of the test compound were added to each well, 2 replicate wells for each concentration were set up, and diluted with a 5-fold gradient, and continued to culture for 72 h. All cells were subjected to EC50 test for corresponding samples.
(§2) The fluorescence intensity of each well was detected using the Alarm blue method, and IC50 was calculated.
(§3) IC50 was calculated according to the following formula:
(§4) [formula] • wherein Min, Max and Slope represent the minimum, maximum and slope respectively.

Assay [2] concerns Human Small Cell Lung Cancer NCI-H82. Kind of assay: Cell proliferation experiment (Alarm blue), H82. The method, then:
as §1, §2, §3, §4

The subject of assay [3] is Human Colon Cancer cells Colo205. Kind of assay: Cell proliferation experiment (Alarm blue), Colo205. To be noted: Colo205 cells, 72 h culture, read-out: Anti cell proliferative activity EC50, Colo205. The protocol: as §1, §2, §3, §4
Assay [4] deals with Human Small Cell Lung Cancer H69. Kind of assay: Cell proliferation experiment (Alarm blue), H69. The conditions noted are these: H69 cells, 72 h culture, read-out: Anti cell proliferative activity EC50, H69. The method, then: as §1, §2, §3, §4
A further assay concerns Human Colon Cancer HT-29. Kind of assay: Cell proliferation experiment (Alarm blue), HT-29. To be noted: HT-29 cells, 72 h culture, read-out: Anti cell proliferative activity EC50, HT-29. The method, then: as §1, §2, §3, §4
Setting [5] is: Homo sapiens, N87 cells, 72 h culture, read-out: Anti cell proliferative activity EC50, N87.
[6] abbreviates: Homo sapiens, NCI-H82, H82 cells, 72 h culture, read-out: Anti cell proliferative activity EC50, H82.
Setting [7] is: Homo sapiens, 72 h, N87 cells, 72 h culture, read-out: Anti cell proliferative activity EC50, N87.
The mark [8] stands for this setting: Homo sapiens, NCI-H82, 72 h, H82 cells, 72 h culture, read-out: Anti cell proliferative activity EC50, H82.
Setting [9] is: N87 cells, 72 h culture, read-out: Anti cell proliferative activity EC50, N87.
[10] abbreviates: H82 cells, 72 h culture, read-out: Anti cell proliferative activity EC50, H82.

Take `CNC(=O)c1ccccc1Nc1nc(Nc2ccc(N3CCN(C(=O)NC4CCN(C(=O)CNCCC#Cc5ccc6c(c5)CN(C5CCC(=O)NC5=O)C6=O)CC4)CC3)cc2)ncc1Cl` (stereo not drawn) [UB-181235]: the 50% effective concentration (EC50) in assay [1] (setting [5]) was 813 nM; in assay [2] (setting [6]), 253 nM; in assay [3] (Homo sapiens, COLO 205) it was 144 nM; in assay [4] (Homo sapiens, NCI-H69) it was greater than 1000 nM.
Take `NC(=O)c1ccccc1Nc1nc(Nc2ccc(N3CCN(C(=O)NC4CCN(C(=O)CNCCC#Cc5ccc6c(c5)CN(C5CCC(=O)NC5=O)C6=O)CC4)CC3)cc2)ncc1Cl` (stereo not drawn) [UB-181236]: the EC50 in assay [1] (setting [7]) was 92.5 nM; in assay [2] (setting [8]) it was 603 nM; in assay [3] (Homo sapiens, COLO 205, 72 h) it was 146 nM; in assay [4] (Homo sapiens, NCI-H69), greater than 1000 nM.
`CNC(=O)c1ccccc1Nc1nc(Nc2ccc(N3CCN(C(=O)N[C@H]4CC[C@@H](N(CCC#Cc5ccc6c(c5)CN(C5CCC(=O)NC5=O)C6=O)C(=O)OCc5ccc(NC(=O)[C@H](CC(N)=O)NC(=O)[C@H](C)NC(=O)[C@H](C)NC(=O)COCCOC)cc5)CC4)CC3)cc2)ncc1Cl` (stereo partly drawn) [UB-181237]: the EC50 was 308 nM in assay [1] (setting [5]); 141 nM in assay [2] (setting [6]); 902 nM in the assay on Human Colon Cancer HT-29 (Homo sapiens); 277 nM in assay [3] (Homo sapiens, COLO 205); greater than 1000 nM in assay [4] (Homo sapiens, NCI-H69).
`CC[C@H]1C(=O)N(C)c2cnc(Nc3ccc(-c4cn([C@H]5CC[C@@H](N(CCOCCC#Cc6cccc7c6CN(C6CCC(=O)NC6=O)C7=O)C(=O)OCc6ccc(NC(=O)[C@H](CCCNC(N)=O)NC(=O)[C@@H](NC(=O)CCOCCOCCOCCOCCOCCOCCOCCOCCNC(=O)CCN7C(=O)C=CC7=O)C(C)C)cc6)CC5)nn4)cc3OC)nc2N1C1CCCC1` (stereo partly drawn) [UB-181238]: the EC50 in assay [1] (72 h) and in assay [2] (72 h) was greater than 1000 nM each time.
Turning to `NC(=O)c1ccccc1Nc1nc(Nc2ccc(N3CCN(C(=O)NC4CCN(C(=O)CNCCC#Cc5ccc6c(c5)CN(C5CCC(=O)NC5=O)C6=O)CC4)CC3)cc2)ncc1Cl` (stereo not drawn) [UB-181239], the EC50 in assay [1] (setting [9]) was 132 nM; in assay [2] (setting [10]), 354 nM; in assay [3], 175 nM; in assay [4], greater than 1000 nM.
Turning to `CNC(=O)c1ccccc1Nc1nc(Nc2ccc(N3CCN(C(=O)NC4CCN(CCNCCC#Cc5ccc6c(c5)CN(C5CCC(=O)NC5=O)C6=O)CC4)CC3)cc2)ncc1Cl` (stereo not drawn) [UB-181240], the half-maximal effective concentration (EC50) is 92 nM in assay [1] (setting [7]); 37 nM in assay [2] (setting [8]); 181 nM in the assay with Human Colon Cancer HT-29 (Homo sapiens); 40.1 nM in assay [3] (Homo sapiens, COLO 205, 72 h); greater than 1000 nM in assay [4] (Homo sapiens, NCI-H69).
Consider `CNC(=O)c1ccccc1Nc1nc(Nc2ccc(N3CCN(C(=O)N[C@H]4CC[C@@H](N(CCC#Cc5ccc6c(c5)CN(C5CCC(=O)NC5=O)C6=O)C(=O)OCc5ccc(NC(=O)[C@H](CC(N)=O)NC(=O)[C@H](C)NC(=O)[C@H](C)NC(=O)COCCOCCOCCOC)cc5)CC4)CC3)cc2)ncc1Cl` (stereo partly drawn) [UB-181242], for which the EC50 in assay [1] (setting [5]) is 226 nM; in assay [2] (setting [6]) it was 94.2 nM; with Human Colon Cancer HT-29 (Homo sapiens), greater than 1000 nM; in assay [3] (Homo sapiens, COLO 205) it was 75.2 nM; in assay [4] (Homo sapiens, NCI-H69), greater than 1000 nM.
With `CNC(=O)c1ccccc1Nc1nc(Nc2ccc(N3CCN(C(=O)N[C@H]4CC[C@@H](N(CCC#Cc5ccc6c(c5)CN(C5CCC(=O)NC5=O)C6=O)C(=O)OC(C)C(C)SSC[C@H](N)C(=O)N[C@H](Cc5ccccc5)C(=O)N[C@H]5CSSC[C@@H](C(=O)N[C@H](CO)[C@@H](C)O)NC(=O)[C@H]([C@@H](C)O)NC(=O)[C@H](CCCCN)NC(=O)[C@@H](Cc6c[nH]c7ccccc67)NC(=O)[C@H](Cc6ccccc6)NC5=O)CC4)CC3)cc2)ncc1Cl` (stereo partly drawn) [UB-181243], the concentration for a half-maximal effect (EC50) in assay [1] (setting [9]) was 668 nM; in assay [2] (setting [10]), 240 nM; with Human Colon Cancer HT-29, greater than 1000 nM; in assay [3], 311 nM; in assay [4] it was greater than 1000 nM.
As for `CNC(=O)c1ccccc1Nc1nc(Nc2ccc(N3CCN(C(=O)N[C@H]4CC[C@@H](N(CCC#Cc5ccc6c(c5)CN(C5CCC(=O)NC5=O)C6=O)C(=O)OCc5ccc(NC(=O)[C@H](CCCNC(N)=O)NC(=O)[C@@H](NC(=O)CCCCCN6C(=O)CC(SC[C@H](N)C(=O)N[C@H](Cc7ccccc7)C(=O)N[C@H]7CSSC[C@@H](C(=O)N[C@H](CO)[C@@H](C)O)NC(=O)[C@H]([C@@H](C)O)NC(=O)[C@H](CCCCN)NC(=O)[C@@H](Cc8c[nH]c9ccccc89)NC(=O)[C@H](Cc8ccccc8)NC7=O)C6=O)C(C)C)cc5)CC4)CC3)cc2)ncc1Cl` (stereo partly drawn) [UB-181246], the concentration for a half-maximal effect (EC50) is 515 nM in assay [1] (setting [9]); 298 nM in assay [2] (setting [10]); greater than 1000 nM with Human Colon Cancer HT-29; 236 nM in assay [3]; greater than 1000 nM in assay [4].
Take `CNC(=O)c1ccccc1Nc1nc(Nc2ccc(N3CCN(C(=O)NC4CCC(N(CCC#Cc5ccc6c(c5)CN(C5CCC(=O)NC5=O)C6=O)C(=O)OCc5ccc(NC(=O)[C@H](CC(N)=O)NC(=O)[C@H](C)NC(=O)[C@H](C)NC(=O)CCCCCN6C(=O)CC(SC[C@H](N)C(=O)N[C@H](Cc7ccccc7)C(=O)N[C@H]7CSSC[C@@H](C(=O)N[C@H](CO)[C@@H](C)O)NC(=O)[C@H]([C@@H](C)O)NC(=O)[C@H](CCCCN)NC(=O)[C@@H](Cc8c[nH]c9ccccc89)NC(=O)[C@H](Cc8ccccc8)NC7=O)C6=O)cc5)CC4)CC3)cc2)ncc1Cl` (stereo partly drawn) [UB-181247]: the concentration for a half-maximal effect (EC50) is 168 nM in assay [1] (setting [9]); 91.4 nM in assay [2] (setting [10]); greater than 1000 nM with Human Colon Cancer HT-29; 169 nM in assay [3]; greater than 1000 nM in assay [4].
On to `CNC(=O)c1ccccc1Nc1nc(Nc2ccc(N3CCC(C(=O)N4CCC5(CC4)CC(NCCC#Cc4ccc6c(c4)CN(C4CCC(=O)NC4=O)C6=O)C5)CC3)cc2)ncc1Cl` (stereo not drawn) [UB-181249], for which the half-maximal effective concentration (EC50) is 66.1 nM in assay [1] (setting [7]); 386 nM in assay [2] (setting [8]); 52 nM in assay [3] (Homo sapiens, COLO 205, 72 h); greater than 1000 nM in assay [4] (Homo sapiens, NCI-H69).
On to `CNC(=O)c1ccccc1Nc1nc(Nc2ccc(N3CCN(C(=O)N[C@H]4C[C@@H](NCCC#Cc5ccc6c(c5)CN(C5CCC(=O)NC5=O)C6=O)C4)CC3)cc2)ncc1Cl` (stereo partly drawn) [UB-181250], for which the half-maximal effective concentration (EC50) was 20.5 nM in assay [1] (setting [7]); 53.7 nM in assay [2] (setting [8]); 48.2 nM in assay [3] (Homo sapiens, COLO 205, 72 h); greater than 1000 nM in assay [4] (Homo sapiens, NCI-H69).
On to `NC(=O)c1ccccc1Nc1nc(Nc2ccc(N3CCN(C(=O)N[C@H]4CC[C@@H](NC5CN(CCC#Cc6ccc7c(c6)CN(C6CCC(=O)NC6=O)C7=O)C5)CC4)CC3)cc2)ncc1Cl` (stereo partly drawn) [UB-181251], for which the EC50 in assay [1] (setting [7]) is 71.9 nM; in assay [2] (setting [8]), 32.4 nM; in assay [3] (Homo sapiens, COLO 205, 72 h) it was 133 nM; in assay [4] (Homo sapiens, NCI-H69), greater than 1000 nM.
As for `CNC(=O)c1ccccc1Nc1nc(Nc2ccc(N3CCN(C(=O)N[C@H]4C[C@@H](NCC#Cc5ccc6c(c5)CN(C5CCC(=O)NC5=O)C6=O)C4)CC3)cc2)ncc1Cl` (stereo partly drawn) [UB-181257], the EC50 in assay [1] (setting [7]) is 71.8 nM; in assay [2] (setting [8]), 42.3 nM; in assay [3] (Homo sapiens, COLO 205, 72 h), 59.4 nM; in assay [4] (Homo sapiens, NCI-H69) it was greater than 1000 nM.
On to `NC(=O)c1ccccc1Nc1nc(Nc2ccc(N3CCN(C(=O)N[C@H]4C[C@@H](NCC#Cc5ccc6c(c5)CN(C5CCC(=O)NC5=O)C6=O)C4)CC3)cc2)ncc1Cl` (stereo partly drawn) [UB-181258], for which the EC50 was determined as 24.6 nM in assay [1] (setting [7]); 23.8 nM in assay [2] (setting [8]); 401 nM with Human Colon Cancer HT-29 (Homo sapiens); 37.7 nM in assay [3] (Homo sapiens, COLO 205, 72 h); 31.3 nM in assay [4] (Homo sapiens, NCI-H69).
For `NC(=O)c1ccccc1Nc1nc(Nc2ccc(N3CCN(C(=O)N[C@H]4C[C@@H](NCCC#Cc5ccc6c(c5)CN(C5CCC(=O)NC5=O)C6=O)C4)CC3)cc2)ncc1Cl` (stereo partly drawn) [UB-181259], the concentration giving a half-maximal response (EC50) in assay [1] (setting [7]) was determined as 111 nM; in assay [2] (setting [8]) it was 20.9 nM; with Human Colon Cancer HT-29 (Homo sapiens) it was 194 nM; in assay [3] (Homo sapiens, COLO 205, 72 h), 33.9 nM; in assay [4] (Homo sapiens, NCI-H69) it was 19.1 nM.
Regarding `NC(=O)c1ccccc1Nc1nc(Nc2ccc(N3CCN(C(=O)N[C@H]4C[C@H](NCCC#Cc5ccc6c(c5)CN(C5CCC(=O)NC5=O)C6=O)C4)CC3)cc2)ncc1Cl` (stereo partly drawn) [UB-181261], the EC50 in assay [1] (setting [7]) is 23.6 nM; in assay [2] (setting [8]) it was 24.9 nM; in assay [3] (Homo sapiens, COLO 205, 72 h), 24.8 nM; in assay [4] (Homo sapiens, NCI-H69), 61.2 nM.
For the molecule `C[C@H](NC(=O)CCCCCN1C(=O)C=CC1=O)C(=O)N[C@@H](C)C(=O)N[C@@H](CC(N)=O)C(=O)Nc1ccc(COC(=O)N(CCC#Cc2ccc3c(c2)CN(C2CCC(=O)NC2=O)C3=O)C2CCC(NC(=O)N3CCN(c4ccc(Nc5ncc(Cl)c(Nc6ccccc6C(N)=O)n5)cc4)CC3)CC2)cc1` (stereo partly drawn) [UB-181295], the 50% effective concentration (EC50) stood at 106 nM in assay [2] (setting [6]); 484 nM in the assay on Human Colon Cancer HT-29 (Homo sapiens); 136 nM in assay [3] (Homo sapiens, COLO 205); 953 nM in assay [4] (Homo sapiens, NCI-H69).
